BindingDB's records for patent US20240083888 (Reistone Biopharma Company, 2024)

Molecular target: Dipeptidyl peptidase 1 (Homo sapiens, UniProt P53634)
Assay: In Vitro Inhibitory Assay
Method: The compound was diluted with DMSO to a 384-well echo plate at a concentration of 100× of the highest concentration at the beginning of the experiment. 0.2 μL of the diluted compound was pipetted to a black-bottomed 384-well reaction plate for later use. […] The solution was added to the black-bottom 384-well reaction plate ([…]). 10 μL of the buffer was added for the vehicle control group. The plate containing compounds in its wells was incubated at room temperature for 30 minutes.

Dipeptidyl peptidase 1, sequence (P53634 25-134 limits assumed): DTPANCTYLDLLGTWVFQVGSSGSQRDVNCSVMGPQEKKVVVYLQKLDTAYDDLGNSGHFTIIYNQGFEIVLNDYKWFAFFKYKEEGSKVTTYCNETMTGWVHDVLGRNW
Dipeptidyl peptidase 1, sequence (P53634 231-394 limits assumed): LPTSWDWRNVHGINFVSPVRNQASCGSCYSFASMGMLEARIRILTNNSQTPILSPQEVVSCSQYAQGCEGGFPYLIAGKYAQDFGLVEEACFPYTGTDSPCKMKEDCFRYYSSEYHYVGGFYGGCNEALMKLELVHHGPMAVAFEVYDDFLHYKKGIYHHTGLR
Dipeptidyl peptidase 1, sequence (P53634 395-463 limits assumed): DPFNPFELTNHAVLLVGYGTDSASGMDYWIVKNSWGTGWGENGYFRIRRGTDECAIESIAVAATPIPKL

## N#C[C@H](Cc1ccc2c(c1)CC(=O)N(c1ccc(F)cc1)C2)NC(=O)C1(N)CCCCC1 [US20240083888, Compound 58]
  IC50: 0.017 µM
